Values quoted from earlier work in patent publication US8632828B2, “Chinese herbal medicine composition used for antiinflammation, detumescence and acesodyne, and preparation method and use thereof” (priority 2009, dated 2014).

Experiments:
People = settings: oral administration
mice = settings: subcutaneous injection
rats = settings: intravenous injection
melanin tumour = settings: mice, intraperitoneal injection
[1] = system: ehrlich ascites tumor of mice; settings: intraperitoneal injection

## CCN1C[C@]2(COC)[C@H](O)C[C@H](OC)[C@@]34[C@@H]5C[C@@]6(O)[C@H](OC(=O)c7ccccc7)[C@@H]5[C@@](OC(C)=O)([C@@H]([C@H](OC)[C@H]23)[C@@H]14)[C@@H](O)[C@@H]6OC [Aconitine]
People
  fatal dosage: 2~5 mg
mice
  LD50: 0.32 mg/kg

## COc1c2ccoc2cc2oc(=O)ccc12 [bergapten]
rats
  LD50: 945 mg/kg

## Cc1cc(O)c2c(c1)C(=O)c1cc(O)cc(O)c1C2=O [emodin]
Melanin tumour
  inhibiting effect on melanin tumour: injection, have good inhibiting
[1]
  inhibiting effect on ehrlich ascites tumor: injection, have good inhibiting

## COC[C@]12CN(C)[C@@H]3[C@@H]4[C@H](OC)[C@H]1[C@@]3([C@@H](OC)C[C@H]2O)[C@@H]1C[C@@]2(O)[C@H](OC(=O)c3ccccc3)[C@@H]1[C@]4(OC(C)=O)[C@@H](O)[C@@H]2OC [mesaconitine]
mice
  fatal dosage: fatal dosage was 0.3~0.5 mg/kg.

## COc1c2occc2cc2ccc(=O)oc12 [xanthotoxin]
rats
  LD50: 160 mg/kg
